The values that follow come from US20150315188A1, “COMPOUNDS AND METHODS FOR TREATMENT OF HYPERTENSION” (MEDIVATION TECHNOLOGIES, INC., priority 2012, published 2015).

Holding throughout (assay type): cell-based
Assay [1] deals with T1, Human adrenergic α1B receptor (Homo sapiens, UniProt P35368).
T1 sequence (P35368 1-520): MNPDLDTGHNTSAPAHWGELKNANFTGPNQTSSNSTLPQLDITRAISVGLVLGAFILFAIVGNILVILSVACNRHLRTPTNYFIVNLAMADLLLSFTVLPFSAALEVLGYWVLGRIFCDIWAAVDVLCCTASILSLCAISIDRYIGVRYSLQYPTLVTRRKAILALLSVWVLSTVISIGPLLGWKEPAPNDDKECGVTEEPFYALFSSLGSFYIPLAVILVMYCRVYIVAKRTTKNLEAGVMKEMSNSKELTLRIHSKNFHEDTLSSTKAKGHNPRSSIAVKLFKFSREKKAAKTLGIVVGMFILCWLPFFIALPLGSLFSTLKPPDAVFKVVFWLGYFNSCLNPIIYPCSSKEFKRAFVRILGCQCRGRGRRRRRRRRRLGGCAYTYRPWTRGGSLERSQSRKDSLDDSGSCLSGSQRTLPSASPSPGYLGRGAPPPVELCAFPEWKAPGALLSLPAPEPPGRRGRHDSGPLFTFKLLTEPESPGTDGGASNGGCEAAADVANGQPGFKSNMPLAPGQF
The assay can be described thus: β-Arrestin GPCR functional assay, adrenergic α1B (Protocol B). As to conditions: for IC50: β-arrestin, antagonist vs nor-epinephrine EC80. As for the experimental part: To evaluate the activity of compounds in β-Arrestin GPCR functional assays, recombinant CHO cell line (DiscoveRX), over expressed with human adrenergic α1B receptor were used. The experiment was done with a kit of DiscoveRX as per recommended protocol of the supplier. Cells were harvested from culture flask using cell dissociation solution (CDS) and plated at a density of 12,000 cells/well in CP reagent (supplied with the kit) in a half area 96-well white polystyrene plate. After 24 h incubation at 37° C., compounds at various concentrations in 1% (final) DMSO were charged to the cells for 30 min at 37° C. Active nor-epinephrine (-NE) at its EC80 concentrations (50 nM) were then added to the cells and incubated for another 90 min at 37° C. Detection mix was prepared by mixing Path Hunter cell assay buffer, Emerald II solution and Galactone star solution in a ratio of 19:5:1 and incubated with the cells for 60 min at RT in the dark. The reading was taken in Envision at luminescence mode. Biochemical assay results are presented as the percent Inhibition in Table B2a, or IC50 values in Table B2b.

Assay [2] has as its target T2, Human adrenergic α2A receptor (Homo sapiens, UniProt P08913).
T2 sequence (P08913 1-465): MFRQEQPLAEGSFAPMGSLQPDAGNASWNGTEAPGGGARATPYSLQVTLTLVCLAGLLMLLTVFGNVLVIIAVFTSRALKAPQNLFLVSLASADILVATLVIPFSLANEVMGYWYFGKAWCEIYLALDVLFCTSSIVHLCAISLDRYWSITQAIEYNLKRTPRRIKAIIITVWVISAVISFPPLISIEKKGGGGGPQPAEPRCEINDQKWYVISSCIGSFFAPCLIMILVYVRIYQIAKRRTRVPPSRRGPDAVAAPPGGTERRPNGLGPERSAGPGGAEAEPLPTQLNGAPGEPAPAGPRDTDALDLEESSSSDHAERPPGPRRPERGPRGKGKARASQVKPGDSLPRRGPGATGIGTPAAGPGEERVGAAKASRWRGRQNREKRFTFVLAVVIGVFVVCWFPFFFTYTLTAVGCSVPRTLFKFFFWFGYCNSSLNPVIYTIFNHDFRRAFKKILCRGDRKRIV
The assay can be described thus: β-Arrestin GPCR functional assay, adrenergic α2A (Protocol B). As to conditions: for IC50: β-arrestin, antagonist vs nor-epinephrine EC80. Summed up: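 PathHunter CHO cells overexpressing human α2A receptor were preincubated with compounds (1% DMSO final) for 30 min at 37 °C, then stimulated 90 min with norepinephrine at EC80 (270 nM). β-Arrestin recruitment read by chemiluminescence after 60 min detection; reported as % inhibition or IC50.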

The target of assay [3] is T3, Human adrenergic α2B receptor (Homo sapiens, UniProt P18089).
T3 sequence (P18089 1-450): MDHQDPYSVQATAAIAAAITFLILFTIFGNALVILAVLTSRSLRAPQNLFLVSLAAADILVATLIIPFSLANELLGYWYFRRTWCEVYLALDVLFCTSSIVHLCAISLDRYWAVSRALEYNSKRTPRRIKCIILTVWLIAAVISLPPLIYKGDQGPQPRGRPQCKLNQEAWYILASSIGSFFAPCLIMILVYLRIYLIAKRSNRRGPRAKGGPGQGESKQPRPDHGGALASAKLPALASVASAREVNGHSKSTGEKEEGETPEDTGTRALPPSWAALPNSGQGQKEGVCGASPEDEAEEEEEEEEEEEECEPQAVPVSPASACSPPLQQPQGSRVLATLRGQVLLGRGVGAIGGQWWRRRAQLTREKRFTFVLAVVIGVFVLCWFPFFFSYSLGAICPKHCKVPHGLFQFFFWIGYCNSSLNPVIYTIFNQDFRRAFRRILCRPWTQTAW
Nature of the assay: β-Arrestin GPCR functional assay, adrenergic α2B (Protocol B). As to conditions: for IC50: β-arrestin, antagonist vs nor-epinephrine EC80, read-out: IC50 Adrenergic α2B. The gist of the method:
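CHO cells overexpressing human α2B (PathHunter β-arrestin), 12,000 per well, 24 h at 37° C; compounds in 1% DMSO 30 min, then 50 nM norepinephrine (EC80) 90 min at 37° C.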

Setting [4] is: 0.3 μM compound, nor-epinephrine at EC80 (50 nM).
The mark [5] stands for this setting: 10 nM compound, nor-epinephrine at EC80 (50 nM).
Where [6] appears, read: 30 nM compound, nor-epinephrine at EC80 (50 nM).
The mark [7] stands for this setting: 0.1 μM compound, nor-epinephrine at EC80 (50 nM).

As to `Cc1cc(C)c2c(c1)c1c(n2CC(C)(O)c2ccncc2)CCN2CCCC12` (single isomer, unassigned) [19a], the inhibition at 0.1 µM in assay [1] (0.1 μM compound, nor-epinephrine at EC80 (50 nM), read-out: Percentage inhibition, Adrenergic α1B) is 45%; in assay [2] (0.1 μM compound, nor-epinephrine at EC80 (270 nM), read-out: Percentage inhibition, Adrenergic α2A) it was 13%; in assay [3] (0.1 μM compound, nor-epinephrine at EC80 (50 nM), read-out: Percentage inhibition, Adrenergic α2B), 101%. In addition, the “Percentage inhibition, Adrenergic α1B” value in assay [1] (setting [4]) amounted to 74%. The IC50 in assay [1] came to 107 nM; in assay [2], 1260 nM; in assay [3], 18 nM. In addition, the inhibition at 0.3 µM in assay [2] (0.3 μM compound, nor-epinephrine at EC80 (270 nM), read-out: Percentage inhibition, Adrenergic α2A) amounted to 23%. Further, the figures for the “Percentage inhibition, Adrenergic α2B” value in assay [3] (setting [5]) and in assay [3] (setting [6]) were 33% and 71%, respectively.
On to `Cc1cc(C)c2c(c1)c1c(n2CC(C)(O)c2ccncc2)CCN2CCCC12` (single isomer, unassigned) [19b], for which the “Percentage inhibition, Adrenergic α1B” value is 25% in assay [1] (setting [7]) and 52% in assay [1] (setting [4]). Further, the IC50 came to 351 nM in assay [1], 5010 nM in assay [2] and 52 nM in assay [3]. In addition, the “Percentage inhibition, Adrenergic α2A” value in assay [2] (0.1 μM compound, nor-epinephrine at EC80 (270 nM)) is 24%; in assay [2] (0.3 μM compound, nor-epinephrine at EC80 (270 nM)) it was 20%. For the same compound, the “Percentage inhibition, Adrenergic α2B” value came out at 15% in assay [3] (setting [5]), 34% in assay [3] (setting [6]) and 86% in assay [3] (setting [7]).
Regarding `CC(O)(Cn1c2c(c3cc(F)ccc31)C1CCCN1CC2)c1ccncc1` (single isomer, unassigned) [31a], the IC50 stood at 982 nM in assay [1], 11400 nM in assay [2] and 87 nM in assay [3].
For the compound `CC(O)(Cn1c2c(c3cc(F)ccc31)C1CCCN1CC2)c1ccncc1` (single isomer, unassigned) [31b], the IC50 in assay [1] worked out at 782 nM; in assay [2], 11300 nM; in assay [3], 66 nM.
For the compound `Cc1ccc2c(c1)c1c(n2CC(OC2CCCC2)c2ccncc2)CCN(C)C1` (single isomer, unassigned) [35a], the results for the IC50 in assay [1], in assay [2] and in assay [3] were 672 nM, 2390 nM and 255 nM, respectively.
The corresponding values for `CCCOC(Cn1c2c(c3cc(C)ccc31)CN(C)CC2)c1ccncc1` (single isomer, unassigned) [42a] are 636 nM, 3310 nM and 181 nM.
The corresponding values for `CCCOC(Cn1c2c(c3cc(C)ccc31)CN(C)CC2)c1ccncc1` (single isomer, unassigned) [42b] are 1140 nM, 5220 nM and 41 nM.
The corresponding values for `CCOC(Cn1c2c(c3cc(C)ccc31)CN(C)CC2)c1ccncc1` (single isomer, unassigned) [43a] are 670 nM, 3570 nM and 119 nM.
With `CCOC(Cn1c2c(c3cc(C)ccc31)CN(C)CC2)c1ccncc1` (single isomer, unassigned) [43b], the results for the IC50 in assay [1], in assay [2] and in assay [3] were 1090 nM, 7340 nM and 91 nM, respectively.
In the same order, the values of `Cc1cc(C)c2c(c1)c1c(n2CC(C)(O)c2cccnc2)CCN2CCCC12` (single isomer, unassigned) [44a] are 684 nM, 5180 nM and 178 nM.
The corresponding values for `Cc1cc(C)c2c(c1)c1c(n2CC(C)(O)c2cccnc2)CCN2CCCC12` (single isomer, unassigned) [44b] are 252 nM, 909 nM and 10 nM.
In the same order, the values of `Cc1ccc2c(c1)c1c(n2CC(C)(O)c2ccnc(F)c2)CCN2CCCC12` (single isomer, unassigned) [48a] are 45 nM, 1110 nM and 20 nM.
Consider `Cc1ccc2c(c1)c1c(n2CC(C)(O)c2ccnc(F)c2)CCN2CCCC12` (single isomer, unassigned) [48b], for which the figures for the IC50 in assay [1], in assay [2] and in assay [3] were 123 nM, 491 nM and 18 nM, respectively.
In the same order, the values of `Cc1cc2c3c(n(CC(C)(O)c4ccncc4)c2cc1Cl)CCN1CCCC31` (single isomer, unassigned) [50a] are 47 nM, 713 nM and 14 nM.
In the same order, the values of `Cc1cc2c3c(n(CC(C)(O)c4ccncc4)c2cc1Cl)CCN1CCCC31` (single isomer, unassigned) [50b] are 54 nM, 565 nM and 12 nM.
In the same order, the values of `CC(O)(Cn1c2c(c3cc(Cl)cc(F)c31)C1CCCN1CC2)c1ccncc1` (single isomer, unassigned) [52a] are 149 nM, 1020 nM and 16 nM.
As to `CC(O)(Cn1c2c(c3cc(Cl)cc(F)c31)C1CCCN1CC2)c1ccncc1` (single isomer, unassigned) [52b], the IC50 in assay [1] amounted to 224 nM; in assay [2], 992 nM; in assay [3], 49 nM.
The corresponding values for `Cc1ccc2c(c1)c1c(n2CC(OCC2CCC2)c2ccncc2)CCN(C)C1` (single isomer, unassigned) [59a] are 350 nM, 1570 nM and 67 nM.
`Cc1cc(F)cc2c3c(n(CC(C)(O)c4cccnc4)c12)CCN1CCCC31` (single isomer, unassigned) [75a]: the IC50 in assay [1] was 719 nM; in assay [2] it was 2080 nM; in assay [3], 17 nM.
For the compound `Cc1cc(F)c2c(c1)c1c(n2CC(C)(O)c2ccncc2)CCN2CCCC12` (single isomer, unassigned) [81a], the IC50 in assay [1] worked out at 91 nM; in assay [2], 1250 nM; in assay [3], 16 nM.
The corresponding values for `Cc1cc(Cl)c2c(c1)c1c(n2CC(C)(O)c2ccncc2)CCN2CCCC12` (single isomer, unassigned) [91a] are 213 nM, 865 nM and 16.4 nM.
The corresponding values for `Cc1cc(Cl)c2c(c1)c1c(n2CC(C)(O)c2ccncc2)CCN2CCCC12` (single isomer, unassigned) [91b] are 283 nM, 1780 nM and 18.7 nM.
As for `OC(Cn1c2c(c3cc(Cl)cc(F)c31)C1CCCN1CC2)c1ccncc1` (single isomer, unassigned) [135a], the IC50 was 189 nM in assay [1], 4350 nM in assay [2] and 53.1 nM in assay [3].
